{"source": "patent US7612255B2", "about": "“Transgenic plants for mitigating introgression of genetically engineered genetic traits” (priority 1999, dated 2009)", "key": {"[1]": {"tested_on": "non-transformed tobacco plants", "assay": "Seed germination in the presence of kanamycin or imazapyr (tobacco)", "type": "in vivo, Nicotiana tabacum", "conditions": "tobacco seeds on Nitsch agar medium; sensitive seedlings stop growing within 10 days", "protocol": "Surface sterilized seeds of wild type, the backcross of primary transformants with wild type T0 (=BC), T1, T2, and T3 tobacco plants were planted on either medium. Sensitive seedlings were identified as those that stopped growing within 10 days, forming only short roots and cotyledons, while resistant seedlings grew well, forming long roots and true leaves, continuing their growth past 10 days. The segregation ratio of wild type to TM of each line was calculated. Resistant/dwarfed seedlings were grown to maturity in soil and the plants were analyzed for AHAS resistance (phenotype) and for ahas^R and Δgai insert by PCR (genotype), as described herein above.\nCompetition of TM transgenics with the wild type, and self competition of each alone: The transgenic TM tobacco was used to simulate a TM introgressed hybrid or transgenic volunteer crop, and the wild type tobacco was used to simulate a non-transgenic crop, weed, or wild plant. The competitive interactions between the transgenic and wild type plants were assessed in two separate internally replicated greenhouse experiments. In both experiments, seeds obtained from the first backcross T1 (═BC1) of a representative TM line T1-7 (pollen recipient) and wild type (pollen donor) were used to grow mixed TM and wild type cultures. […]"}, "red rice": {"tested_on": "red rice", "conditions": "fields of transgenic rice bearing the bar gene (Oard et al. 2000); cited from earlier work"}, "non-transgenic B. napus": {"tested_on": "non-transgenic B. napus", "assay": "Rooting of regenerated plantlets in the presence of kanamycin", "type": "in vivo, Brassica napus", "conditions": "root formation of regenerated B. napus plantlets", "from_the_text": "Transformation of oilseed rape (B. napus cv. Westar): The Agrobacterium tumefaciens-mediated transformation protocol of Moloney, et al (Plant Cell Reports 1989; 8,238-242) using excised cotyledonary petioles of B. napus cv. Westar seedlings was followed with some modifications. Excised cotyledons of axenic B. napus cv. Westar seedlings were inoculated by dipping the cut end of a 2 mm petiole in a suspension of A. tumefaciens strain EHA105 or EHA 101 containing the same TM 1 construct described in detail in Example 1. Non-transformed cotyledons served as negative controls. After co-cultivation for 2.5 days, the cotyledons were regenerated on Murashige-Skoog (MS) medium containing 500 mg/L carbenicillin to kill A. tumefaciens and 20 mg/L kanamycin as the primary plant selectable marker. Some healthy calli developed on the cut petioles and regenerated into green shoots which were then sub-cultured onto shoot elongation medium containing 300 mg/L carbenicillin and either 20 mg/L kanamycin or 0.2 μM imazapyr herbicide as secondary selectable marker of the putative transformants. The shoots were then rooted, potted, and transferred to the greenhouse to grow flower and set seed. The putative transformants were tested by PCR (FIG. 5) and by AHAS enzymatic assay (as described in Example 1 herein above) (FIG. 6) to confirm TM transformation. […]"}, "[2]": {"tested_on": "non-transformed B. napus plants", "assay": "Seed germination in the presence of kanamycin or imazapyr (oilseed rape)", "type": "in vivo, Brassica napus", "conditions": "B. napus seeds on Nitsch agar medium", "protocol": "Seed germination in the presence of kanamycin or imazapyr: A discriminatory dose level of Nitsch (Nitsch, Nicotiana. Phytomorphology 1969; 19, 389-404) agar medium containing 150 mg/L kanamycin or 0.3 μM imazapyr inhibiting the growth of non-transformed plants was determined. Surface sterilized seeds of non-transgenic, and TM B. napus plants were planted on either medium. Sensitive seedlings stopped growing within 10 days forming only short roots and cotyledons, while resistant seedlings formed long roots and true leaves and continued their growth. The segregation ratio of non-transgenic to TM of each line was calculated. Resistant/dwarfed seedlings were grown to maturity in soil and the plants were analyzed for AHAS resistance and for ahas^R and Δgai insert by PCR, as described above.\nCompetition of TM transgenic vs. non-transgenic Brassica napus plants and self competition of each alone: The competitive interactions between the TM transgenic vs. non-transgenic Brassica napus plants were assessed in replicated greenhouse experiments. In the first experiment seeds obtained from the selfed homozygous TM lines T1-J9-4 and -6 were used to grow the TM plants in mixed cultures with the non-transgenic plants in a 1:1 TM/WT ratio. […]"}, "[3]": {"tested_on": "Δgai-transformed male sterile tobacco plants", "type": "in vivo, Nicotiana tabacum", "conditions": "kinetin foliar spray; normal fertilization and seed development", "from_the_text": "Seed production on Δgai male sterile plants: The Δgai effect on pollen production is not irreversible: treatment of plants with cytokinins results in plants producing fertile pollen, and capable of self fertilization. Hemizygous imazapyr resistant and semi-dwarf primary TM tobacco transformants (lines 7, 8, and 10) were transferred to soil and grown to flowering. […] The chemicals were in an aqueous solution containing 0.1% (v/v) Tween 20 surfactant. The control group received the surfactant solution only, or none at all. All applications were made through foliar spray every other day for 2 weeks. Female fertility was assessed by backcrossing wild type pollen donors were backcrossed to one plant from each line without kinetin application (FIG. 4). At maturity, the capsules formed on each plant were counted and the dry weight of seed set of up to 5 capsules per each plant was measured. Normal seed set was observed.\nAnthers were collected from three flowers per plant. A minimum of three plants per biotype were analyzed. Pollen viability was scored by staining the pollen with cotton blue stain [Phillips, R. L. in G. Clark, ed. […]\nFloral bud and pistil development of the TM transgenic plants were similar to that of wild type plants. […] Pollen viability, scored by staining tests, of these restored lines was >93% compared to approximately 0% of non-treated plants (FIG. 4). […]"}}}
{"smiles": "CC(C)C1(C)N=C(c2ncccc2C(=O)O)NC1=O", "note": "(stereo not drawn) [imazapyr]", "values": [{"measurement": "Discriminatory dose level inhibiting the growth of non-transformed plants", "setting": "[1]", "value": 0.3, "unit": "µM"}]}
{"smiles": "CP(=O)(O)CCC(N)C(=O)O", "note": "(stereo not drawn) [glufosinate]", "values": [{"measurement": "Control of red rice", "setting": "red rice", "value": "easily controlled"}]}
{"smiles": "NC[C@H]1O[C@H](O[C@H]2[C@H](O)[C@@H](O[C@H]3O[C@H](CO)[C@@H](O)[C@H](N)[C@H]3O)[C@H](N)C[C@@H]2N)[C@H](O)[C@@H](O)[C@@H]1O", "note": "[kanamycin]", "values": [{"measurement": "Kanamycin concentration which inhibits the non-transgenics", "setting": "non-transgenic B. napus", "value": 20, "unit": "mg/L"}, {"measurement": "Discriminatory dose level inhibiting the growth of non-transformed plants", "setting": "[1]", "value": 85.8, "unit": "µM"}, {"measurement": "Discriminatory dose level inhibiting the growth of non-transformed plants", "setting": "[2]", "value": 150, "unit": "mg/L"}]}
{"smiles": "c1coc(CNc2ncnc3[nH]cnc23)c1", "note": "[kinetin]", "values": [{"measurement": "Restoration of fertility of male sterile TM transgenic plants", "setting": "[3]", "value": "restored the fertility"}]}
